Test results reported in patent US9328122B2, “7-substituted Hanfangichin B derivative, and preparation method and use thereof” (HANGZHOU BENSHENG PHARMACEUTICAL CO., LTD., priority 2012, dated 2016).
≈ marks a conversion by molar mass, not a printed value.

Assays:
[1] = test system: K562/ADR (K562adr, drug-resistant chronic myeloid leukemia) cells; assay: MTT cell growth inhibition, leukemia cells; assay type: cell-based; details: Homo sapiens, K562/ADR, 72 h, MTT
Summary of the method: (§1)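 Leukemia cells (6000 per well) in RPMI-1640 with 10% FBS were exposed to 7-substituted fangchinoline derivatives at varying concentrations the day after seeding. After 72 h at 37° C., 5% CO2, viable cell concentration was measured by MTT.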

[2] = test system: NB4 (acute promyelocytic leukemia) cells; assay: MTT cell growth inhibition, leukemia cells; assay type: cell-based; details: Homo sapiens, NB4, 72 h, MTT
Summary of the method: as §1

[3] = test system: RPMI 8226 (multiple myeloma) cells; assay: MTT cell growth inhibition, multiple myeloma cells; assay type: cell-based, human; details: Homo sapiens, RPMI 8226, 72 h, MTT
Summary of the method: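 Viable-cell readout by MTT after 72 h exposure (37° C, 5% CO2) of RPMI 8226 cells to a range of compound concentrations, added one day post-seeding. Cells were seeded at 6000 per well in RPMI-1640 containing 10% FBS.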

[4] = test system: CNE (nasopharyngeal carcinoma) cells; assay: MTT cell growth inhibition, solid tumor cells; assay type: cell-based, human
Summary of the method: (§2)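 In this assay, 6000 tumor cells per well received serially varied compound concentrations after a 24 h settling period in DMEM with 10% FBS. Plates stayed 72 h at 37 °C under 5% CO2, after which MTT quantified surviving cells.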

[5] = test system: CaEs-17 (esophageal cancer) cells; assay: MTT cell growth inhibition, solid tumor cells; assay type: cell-based, human; details: Homo sapiens, CaEs17, CaEs-17, 72 h, MTT
Summary of the method: as §2

[6] = test system: PANC-1 (pancreatic cancer) cells; assay: MTT cell growth inhibition, solid tumor cells; assay type: cell-based, human; details: Homo sapiens, PANC-1, 72 h, MTT
Summary of the method: as §2

[7] = test system: PC-3 (prostate cancer) cells; assay: MTT cell growth inhibition, solid tumor cells; assay type: cell-based, human; details: Homo sapiens, PC-3, 72 h, MTT
Summary of the method: as §2

[8] = test system: SK-OV-3 (ovarian cancer) cells; assay: MTT cell growth inhibition, solid tumor cells; assay type: cell-based, human; details: Homo sapiens, SK-OV-3, 72 h, MTT
Summary of the method: as §2

[9] = test system: A549 (human lung cancer) cells; assay: MTT cell growth inhibition, solid tumor cells; assay type: cell-based; details: Homo sapiens, A549, 72 h, MTT
Summary of the method: as §2

[10] = test system: Becap-37 (human breast cancer) cells; assay: MTT cell growth inhibition, solid tumor cells; assay type: cell-based; details: Homo sapiens, Becap-37, 72 h, MTT
Summary of the method: as §2

[11] = test system: Hela (human cervical cancer) cells; assay: MTT cell growth inhibition, solid tumor cells; assay type: cell-based; details: Homo sapiens, Hela, 72 h, MTT
Summary of the method: as §2

[12] = test system: Hep G2 (human liver cancer) cells; assay: MTT cell growth inhibition, solid tumor cells; assay type: cell-based; details: Homo sapiens, HepG2, Hep G2, 72 h, MTT
Summary of the method: as §2

[13] = test system: Hep-2 (laryngeal carcinoma) cells; assay: MTT cell growth inhibition, solid tumor cells; assay type: cell-based; details: Homo sapiens, Hep-2, 72 h, MTT
Summary of the method: as §2

[14] = test system: MG-63 (osteosarcoma) cells; assay: MTT cell growth inhibition, solid tumor cells; assay type: cell-based; details: Homo sapiens, MG-63, 72 h, MTT
Summary of the method: as §2

[15] = test system: MGC-803 (human gastric cancer) cells; assay: MTT cell growth inhibition, solid tumor cells; assay type: cell-based; details: MGC-803, 72 h, MTT
Summary of the method: as §2

[16] = test system: RKO (human colon adenocarcinoma) cells; assay: MTT cell growth inhibition, solid tumor cells; assay type: cell-based; details: Homo sapiens, RKO, 72 h, MTT
Summary of the method: as §2

[17] = test system: U87-MG (malignant glioma) cells; assay: MTT cell growth inhibition, solid tumor cells; assay type: cell-based; details: Homo sapiens, U-87 MG, U87-MG, 72 h, MTT
Summary of the method: as §2

tumor = assay: Antitumor activity compared with fangchinoline, overall statement; assay type: cell-based; details: tumor type not specified

`COc1ccc2cc1Oc1ccc(cc1)C[C@H]1c3cc(c(OC)cc3CCN1C)Oc1c(OCC(O)CN3CCN(C#N)CC3)c(OC)cc3c1[C@H](C2)N(C)CC3` (stereo partly drawn) [BS-FC-421] was tested. Which IC50 ([1]; read-out: IC50) did it give?
The IC50 was 0.21 µg/mL (≈ 0.271 µM).

What about the IC90 ([1]; read-out: IC90) of the same compound?
The IC90 was 1.43 µg/mL (≈ 1.84 µM).

And the IC50 ([2]; read-out: IC50)?
The IC50 was 0.61 µg/mL (≈ 0.786 µM).

What about the IC90 ([2]; read-out: IC90) of the same compound?
The IC90 was 1.61 µg/mL (≈ 2.07 µM).

And the IC50 ([3]; read-out: IC50)?
The IC50 was < 0.125 µg/mL.

What about the IC90 ([3]; read-out: IC90) of the same compound?
Its IC90 is 0.25 µg/mL (≈ 0.322 µM).

And the IC50 ([4]; Homo sapiens, CNE, 72 h, MTT, read-out: IC50)?
Its IC50 is 0.87 µg/mL (≈ 1.12 µM).

And the IC90 ([4]; Homo sapiens, CNE, 72 h, MTT, read-out: IC90)?
Its IC90 is 3.87 µg/mL (≈ 4.99 µM).

What about the “anti-CNE activity increase over fangchinoline” value ([4]; relative to fangchinoline, Table 2) of the same compound?
The value was ~3 fold.

And the IC50 ([5]; read-out: IC50)?
Its IC50 is 0.88 µg/mL (≈ 1.13 µM).

What about the IC90 ([5]; read-out: IC90) of the same compound?
The IC90 was 9.43 µg/mL (≈ 12.2 µM).

And the IC50 ([6]; read-out: IC50)?
The IC50 was 2.96 µg/mL (≈ 3.81 µM).

And the IC90 ([6]; read-out: IC90)?
Its IC90 is 7.01 µg/mL (≈ 9.03 µM).

And the IC50 ([7]; read-out: IC50)?
Its IC50 is 2.72 µg/mL (≈ 3.51 µM).

And the IC90 ([7]; read-out: IC90)?
The IC90 was 6.07 µg/mL (≈ 7.82 µM).

And the IC50 ([8]; read-out: IC50)?
Its IC50 is 2.36 µg/mL (≈ 3.04 µM).

And the IC90 ([8]; read-out: IC90)?
Its IC90 is 11 µg/mL (≈ 14.2 µM).

What about the IC50 ([9]; read-out: IC50) of the same compound?
Its IC50 is 3.78 µg/mL (≈ 4.87 µM).

What about the IC90 ([9]; read-out: IC90) of the same compound?
Its IC90 is 10.2 µg/mL (≈ 13.1 µM).

What about the IC50 ([10]; read-out: IC50) of the same compound?
Its IC50 is 1.15 µg/mL (≈ 1.48 µM).

What about the IC90 ([10]; read-out: IC90) of the same compound?
Its IC90 is 3.96 µg/mL (≈ 5.1 µM).

And the IC50 ([11]; read-out: IC50)?
Its IC50 is 0.88 µg/mL (≈ 1.13 µM).

And the IC90 ([11]; read-out: IC90)?
The IC90 was 2.78 µg/mL (≈ 3.58 µM).

And the IC50 ([12]; read-out: IC50)?
Its IC50 is 1.16 µg/mL (≈ 1.49 µM).

What about the IC90 ([12]; read-out: IC90) of the same compound?
Its IC90 is 3.25 µg/mL (≈ 4.19 µM).

And the IC50 ([13]; read-out: IC50)?
The IC50 was 1.92 µg/mL (≈ 2.47 µM).

What about the IC90 ([13]; read-out: IC90) of the same compound?
Its IC90 is 8.95 µg/mL (≈ 11.5 µM).

What about the IC50 ([14]; read-out: IC50) of the same compound?
The IC50 was 1.6 µg/mL (≈ 2.06 µM).

And the IC90 ([14]; read-out: IC90)?
Its IC90 is 2.4 µg/mL (≈ 3.09 µM).

What about the IC50 ([15]; read-out: IC50) of the same compound?
The IC50 was 0.84 µg/mL (≈ 1.08 µM).

What about the IC90 ([15]; read-out: IC90) of the same compound?
The IC90 was 4.44 µg/mL (≈ 5.72 µM).

And the IC50 ([16]; read-out: IC50)?
Its IC50 is 0.61 µg/mL (≈ 0.786 µM).

What about the IC90 ([16]; read-out: IC90) of the same compound?
The IC90 was 2.33 µg/mL (≈ 3 µM).

And the IC50 ([17]; read-out: IC50)?
Its IC50 is 1.05 µg/mL (≈ 1.35 µM).

What about the IC90 ([17]; read-out: IC90) of the same compound?
Its IC90 is 2.75 µg/mL (≈ 3.54 µM).

And the “antitumor activity compared with that of fangchinoline” value (tumor)?
The value was “significantly superior”.
